This passage reports IC50 results from US20220073525A1, “COMPOSITIONS FOR INHIBITING UBIQUITIN SPECIFIC PROTEASE 1” (FORMA Therapeutics, Inc., priority 2019, published 2022).

This assay addresses USP1 (Homo sapiens, UniProt O94782). In words: Biochemical Assay for USP1 Inhibition (Ub-Rho 110 fluorescence). To be noted: 30 min preincubation, Enzyme 0.025 nM, Substrate Ub-Rho 110 25 nM. As for the experimental part:
The assay was performed in a final volume of 6 μL in assay buffer containing 20 mM Tris-HCl pH 8.0, (1 M Tris-HCl, pH 8.0 solution; Corning 46-031-CM), 1 mM GSH (L-glutathione reduced, Sigma-Aldrich, G4251-100G), 0.03% BGG (0.22 μM filtered, Sigma, G7516-25G), and 0.01% Triton X-100 (Sigma, T9284-10L). Nanoliter quantities of 10-point, 3-fold serial dilution in DMSO were pre-dispensed into 1536 assay plates (Corning, #3724BC) for a final test concentration of 25 μM to 1.3 nM, top to lowest dose, respectively. Concentration and incubation times were optimized for the maximal signal-to-background while maintaining initial velocity conditions at a fixed substrate concentration (<<Km). 3 μL of 2× Enzyme was added to assay plates (pre-stamped with compound), preincubated for 30 min, and then treated with 3 μL of 2× Substrate (Ub-Rho 110, UbiQ-126). Final concentrations of Enzyme and Substrate are 0.025 nM and 25 nM, respectively. Plates were read using a kinetic protocol continuously for 11 min on the Envision (Perkin Elmer) or PheraSTAR (BMG), excitation at 485 nm and emission at 535 nm or excitation at 520 nm and emission at 590 nm. For all assay formats, data were reported as percent inhibition compared with control wells based on the following equation: % inh=100*([…]), where FLU=measured Fluorescence, AveLow=average Fluorescence of no enzyme control (n=32), and AveHigh=average Fluorescence of DMSO control (n=32). IC50 values were determined by curve fitting of the standard 4 parameter logistic fitting algorithm included in the Activity Base software package: TDBS XE Designer Model205. Data is fitted using the Levenburg Marquardt algorithm.
In Table 5, absolute stereochemistry has not been determined for some Compounds. Accordingly, assignment ofany Compounds as the “R” or “S” stereoisomer is arbitrary, unless otherwise noted. In some cases, Compounds are labeled with “1st eluting isomer”, “2nd eluting isomer”, etc. based on the purification method used to separate the stereoisomers.

Where [1] appears, read: Table 6, additional compounds, read-out: IC50.

Read-outs that look alike come from different tables or passages of the source.

For orientation: IC50 means the point on the concentration scale where inhibition reaches its midpoint.

Sequence of USP1 (O94782 whole entry): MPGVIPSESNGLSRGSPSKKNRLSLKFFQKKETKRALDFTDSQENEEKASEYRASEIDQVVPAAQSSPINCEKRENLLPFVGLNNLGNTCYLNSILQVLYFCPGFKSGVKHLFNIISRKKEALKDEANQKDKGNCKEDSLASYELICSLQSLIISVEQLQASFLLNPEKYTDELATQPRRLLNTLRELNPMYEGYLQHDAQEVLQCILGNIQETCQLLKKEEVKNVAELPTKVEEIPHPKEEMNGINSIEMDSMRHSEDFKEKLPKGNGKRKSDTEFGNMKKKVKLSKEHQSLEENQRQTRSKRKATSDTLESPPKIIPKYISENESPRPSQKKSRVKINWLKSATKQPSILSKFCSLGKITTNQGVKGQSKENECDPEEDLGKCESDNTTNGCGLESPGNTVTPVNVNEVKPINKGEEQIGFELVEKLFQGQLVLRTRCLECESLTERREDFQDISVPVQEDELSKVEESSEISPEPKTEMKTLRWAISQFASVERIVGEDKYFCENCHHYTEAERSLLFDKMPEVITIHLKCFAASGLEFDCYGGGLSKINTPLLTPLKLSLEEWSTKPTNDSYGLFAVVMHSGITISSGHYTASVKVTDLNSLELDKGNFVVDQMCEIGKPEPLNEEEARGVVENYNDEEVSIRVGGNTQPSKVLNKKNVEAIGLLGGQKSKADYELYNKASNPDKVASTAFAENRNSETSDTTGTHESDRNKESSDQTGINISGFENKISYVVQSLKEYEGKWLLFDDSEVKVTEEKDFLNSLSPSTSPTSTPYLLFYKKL
Sequence of USP1 (Q8TAF3 whole entry partner): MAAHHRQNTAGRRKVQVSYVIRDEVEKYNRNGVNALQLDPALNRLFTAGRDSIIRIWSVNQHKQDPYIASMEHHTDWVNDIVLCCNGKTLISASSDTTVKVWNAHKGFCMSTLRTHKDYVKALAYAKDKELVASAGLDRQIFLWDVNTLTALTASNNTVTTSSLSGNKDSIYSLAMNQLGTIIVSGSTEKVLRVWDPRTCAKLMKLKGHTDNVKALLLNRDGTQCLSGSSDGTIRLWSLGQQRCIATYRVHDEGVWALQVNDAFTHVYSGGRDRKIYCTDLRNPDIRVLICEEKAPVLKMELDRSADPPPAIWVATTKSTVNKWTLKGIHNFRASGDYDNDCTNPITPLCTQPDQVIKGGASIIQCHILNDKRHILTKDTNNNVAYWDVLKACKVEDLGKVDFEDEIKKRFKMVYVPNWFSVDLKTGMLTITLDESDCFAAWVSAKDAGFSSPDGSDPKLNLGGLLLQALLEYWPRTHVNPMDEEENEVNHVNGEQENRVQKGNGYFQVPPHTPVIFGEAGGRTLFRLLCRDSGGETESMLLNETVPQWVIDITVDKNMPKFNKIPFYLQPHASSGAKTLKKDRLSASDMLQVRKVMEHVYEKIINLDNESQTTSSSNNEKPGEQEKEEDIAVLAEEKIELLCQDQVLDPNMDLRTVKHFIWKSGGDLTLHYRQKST

As for `Cc1nc(-c2cccnc2C(C)C)c2n1CCN(c1ccc(OCCN3CCOCC3)cc1)C2` [Compound 23, 4-[2-(4-{3-methyl-1-[2-(propan-2-yl)pyridin-3-yl]-5H,6H,7H,8H-imidazo[1,5-a]pyrazin-7-yl}phenoxy)ethyl]morpholine], the IC50 (Table 5, read-out: IC50 (μm)) lay in the range of 10 to 25 µM.

As for `Cc1nc(-c2cccnc2C(C)C)c2n1CC(=O)N(c1ccc(-c3nc(C(F)(F)F)cn3C)cc1)C2` [Compound C-3, 1-(2-isopropylpyridin-3-yl)-3-methyl-7-(4-(1-methyl-4-(trifluoromethyl)-1H-imidazol-2-yl)phenyl)-7,8-dihydroimidazo[1,5-a]pyrazin-6(5H)-one], under setting [1], the 50% inhibitory concentration (IC50) is over 25 µM.

Consider `Cc1nc(-c2cccnc2C(C)C)c2n1CCN(c1ccc(C(=O)N(C)C)cc1F)C2` [Compound 49, 3-fluoro-N,N-dimethyl-4-{3-methyl-1-[2-(propan-2-yl)pyridin-3-yl]-5H,6H,7H,8H-imidazo[1,5-a]pyrazin-7-yl}benzamide], for which the IC50 (Table 5, read-out: IC50 (μm)) was 10 to 25 µM.

`Cc1nc(-c2cccnc2C(C)C)c2n1CCN(c1cccc(C(=O)N3CCC[C@H]3C)c1)C2` [Compound 61, 3-(3-methyl-7-{3-[(2R)-2-methylpyrrolidine-1-carbonyl]phenyl}-5H,6H,7H,8H-imidazo[1,5-a]pyrazin-1-yl)-2-(propan-2-yl)pyridine]: the half-inhibitory concentration (IC50) (Table 5, read-out: IC50 (μm)) was over 25 µM.

On to `Cc1nc(-c2cccnc2C(C)C)c2n1CCN(c1ccc(-c3nc(C(F)(F)F)cn3C)cc1)C2=O` [Compound C-5, 1-(2-isopropylpyridin-3-yl)-3-methyl-7-(4-(1-methyl-4-(trifluoromethyl)-1H-imidazol-2-yl)phenyl)-6,7-dihydroimidazo[1,5-a]pyrazin-8(5H)-one], for which, under setting [1], the IC50 is over 25 µM.

Turning to `Cc1nc(-c2cccnc2C(C)C)c2n1CCN(c1ccc(-c3nc(Cl)cn3C)cc1)C2` [Compound 68, 3-{7-[4-(4-chloro-1-methyl-1H-imidazol-2-yl)phenyl]-3-methyl-5H,6H,7H,8H-imidazo[1,5-a]pyrazin-1-yl}-2-(propan-2-yl)pyridine], the IC50 (Table 5, read-out: IC50 (μm)) was at most 1 µM.

As for `Cc1nc(-c2cccnc2C(C)C)c2n1CCN(c1ccc(N3CCOCC3)cc1)C2` [Compound 30, 4-(4-{3-methyl-1-[2-(propan-2-yl)pyridin-3-yl]-5H,6H,7H,8H-imidazo[1,5-a]pyrazin-7-yl}phenyl)morpholine], the IC50 (Table 5, read-out: IC50 (μm)) was over 25 µM.

On to `Cc1nc(-c2cccnc2OC(F)F)c2n1CCN(c1ccc(-n3ccc(C(F)(F)F)n3)cc1)C2` [Compound 78, 2-(difluoromethoxy)-3-(3-methyl-7-{4-[3-(trifluoromethyl)-1H-pyrazol-1-yl]phenyl}-5H,6H,7H,8H-imidazo[1,5-a]pyrazin-1-yl)pyridine], for which the IC50 (Table 5, read-out: IC50 (μm)) is at most 1 µM.

In the case of `Cc1nc(-c2cccnc2OCC(F)(F)F)c2n1CCN(c1ccc(-c3nc(C(F)(F)F)cn3C)cc1)C2` [Compound 16, 3-(3-methyl-7-{4-[1-methyl-4-(trifluoromethyl)-1H-imidazol-2-yl]phenyl}-5H,6H,7H,8H-imidazo[1,5-a)pyrazin-1-yl)-2-(2,2,2-trifluoroethoxy)pyridine], the IC50 (Table 5, read-out: IC50 (μm)) is at most 1 µM.

With `Cc1nc(-c2cccnc2C(C)C)c2n1CCN(c1ccc(C3CCCNC3=O)cc1)C2` (stereo not shown) [Compound 29, 3-(4-{3-methyl-1-[2-(propan-2-yl)pyridin-3-yl]-5H,6H,7H,8H-imidazo[1,5-a]pyrazin-7-yl}phenyl)piperidin-2-one], the IC50 (Table 5, read-out: IC50 (μm)) was over 25 µM.

On to `Cc1nc(-c2cccnc2C(C)C)c2n1CCN(c1ccc(-c3nc(C(F)(F)F)cn3C)cc1)C2C` (stereo not shown) [Compound 7, 3-(3,8-dimethyl-7-{4-[1-methyl-4-(trifluoromethyl)-1H-imidazol-2-yl]phenyl}-5H,6H,7H,8H-imidazo[1,5-a]pyrazin-1-yl)-2-(propan-2-yl)pyridine], for which the IC50 (Table 5, read-out: IC50 (μm)) was at most 1 µM.

Consider `COc1ccc(N2CCn3c(C)nc(-c4cccnc4C(C)C)c3C2)cn1` [Compound 22, 2-methoxy-5-{3-methyl-1-[2-(propan-2-yl)pyridin-3-yl]-5H,6H,7H,8H-imidazo[1,5-a]pyrazin-7-yl}pyridine], for which the IC50 (Table 5, read-out: IC50 (μm)) lay within 10 to 25 µM.

Take `Cc1nc(-c2cccnc2C(C)C)c2n1CCN(c1ccc(-c3nc(C4CC4)cn3C)cc1)C2` [Compound 80, 3-{7-[4-(4-cyclopropyl-1-methyl-1H-imidazol-2-yl)phenyl]-3-methyl-5H,6H,7H,8H-imidazo[1,5-a]pyrazin-1-yl}-2-(propan-2-yl)pyridine]: the half-maximal inhibitory concentration (IC50) (Table 5, read-out: IC50 (μm)) is at most 1 µM.

`Cc1nc(-c2ccc(N3CCn4c(C)nc(-c5cccnc5C(C)C)c4C3)cc2)cn1C` [Compound 45, 3-{7-[4-(1,2-dimethyl-1H-imidazol-4-yl)phenyl]-3-methyl-5H,6H,7H,8H-imidazo[1,5-a]pyrazin-1-yl}-2-(propan-2-yl)pyridine]: the IC50 (Table 5, read-out: IC50 (μm)) was at most 1 µM.

As for `Cc1nc(-c2cccnc2C(C)C)c2n1CCN(c1ccc(-c3ncccn3)cc1)C2` [Compound 41, 2-(4-{3-methyl-1-[2-(propan-2-yl)pyridin-3-yl]-5H,6H,7H,8H-imidazo[1,5-a]pyrazin-7-yl}phenyl)pyrimidine], the IC50 (Table 5, read-out: IC50 (μm)) lay within 1 to 10 µM.

Regarding `Cc1nc(-c2cccnc2C(C)C)c2n1CCN(c1ccc(-c3cnn(C4COC4)c3)cc1)C2` [Compound 71, 3-(3-methyl-7-{4-[1-(oxetan-3-yl)-1H-pyrazol-4-yl]phenyl}-5H,6H,7H,8H-imidazo[1,5-a]pyrazin-1-yl)-2-(propan-2-yl)pyridine], the concentration for half-maximal inhibition (IC50) (Table 5, read-out: IC50 (μm)) is over 25 µM.

Take `Cc1nc(-c2cccnc2C(C)C)c2n1CCN(c1cccc(C(=O)N3CCC[C@@H]3C)c1)C2` [Compound 62, 3-(3-methyl-7-{3-[(2S)-2-methylpyrrolidine-1-carbonyl]phenyl}-5H,6H,7H,8H-imidazo[1,5-a]pyrazin-1-yl)-2-(propan-2-yl)pyridine]: for the setting “Table 5, read-out: IC50 (μm)”, the IC50 is over 25 µM.

On to `Cc1nnc(-c2ccc(N3CCn4c(C)nc(-c5cccnc5C(C)C)c4C3)cc2)o1` [Compound 44, 3-{3-methyl-7-[4-(5-methyl-1,3,4-oxadiazol-2-yl)phenyl]-5H,6H,7H,8H-imidazo[1,5-a]pyrazin-1-yl}-2-(propan-2-yl)pyridine], for which the IC50 (Table 5, read-out: IC50 (μm)) lay in the range of 1 to 10 µM.

`Cc1nc(-c2cccnc2OC(F)F)c2n1CC(C)N(c1ccc(-c3nc(C(F)(F)F)cn3C)cc1)C2` (single isomer, unassigned) [Compound 27-1, 2-(difluoromethoxy)-3-[-3,6-dimethyl-7-{4-[1-methyl-4-(trifluoromethyl)-1H-imidazol-2-yl]phenyl}-5H,6H,7H,8H-imidazo[1,5-a]pyrazin-1-yl]pyridine]: the IC50 (Table 5, read-out: IC50 (μm)) was at most 1 µM.

Turning to `Cc1ccn(-c2ccc(N3CCn4c(C)nc(-c5cccnc5C(C)C)c4C3)cc2)n1` [Compound 31, 3-{3-methyl-7-[4-(3-methyl-1H-pyrazol-1-yl)phenyl]-5H,6H,7H,8H-imidazo[1,5-a]pyrazin-1-yl}-2-(propan-2-yl)pyridine], the half-inhibitory concentration (IC50) (Table 5, read-out: IC50 (μm)) was at most 1 µM.

For the compound `Cc1nc(-c2cccnc2C(C)C)c2n1CCN(c1ccc(N3CCC(O)C3)cc1)C2` (stereo not shown) [Compound 36, 1-(4-{3-methyl-1-[2-(propan-2-yl)pyridin-3-yl]-5H,6H,7H,8H-imidazo[1,5-a]pyrazin-7-yl}phenyl)pyrrolidin-3-ol], the half-inhibitory concentration (IC50) (Table 5, read-out: IC50 (μm)) was in the range of 10 to 25 µM.

`Cc1nc(-c2cccnc2C(C)C)c2n1CCN(c1cc(N3CCCCC3)ncn1)C2` [Compound 19, 4-{3-methyl-1-[2-(propan-2-yl)pyridin-3-yl]-5H,6H,7H,8H-imidazo[1,5-a]pyrazin-7-yl}-6-(piperidin-1-yl)pyrimidine]: for the setting “Table 5, read-out: IC50 (μm)”, the half-inhibitory concentration (IC50) was 10 to 25 µM.

For the compound `Cc1nc(-c2cccnc2C(C)C)c2n1CCN(c1ccc(C(=O)N(C)C)cc1)C2` [Compound 50, N,N-dimethyl-4-{3-methyl-1-[2-(propan-2-yl)pyridin-3-yl]-5H,6H,7H,8H-imidazo[1,5-a]pyrazin-7-yl}benzamide], the IC50 (Table 5, read-out: IC50 (μm)) fell in the range of 10 to 25 µM.

With `Cc1nc(-c2cccnc2C(C)C)c2n1CCCN(Cc1ccc(-c3nc(C(F)(F)F)cn3C)cc1)C2` [Compound C-2, 1-(2-isopropylpyridin-3-yl)-3-methyl-8-(4-(1-methyl-4-(trifluoromethyl)-1H-imidazol-2-yl)benzyl)-6,7,8,9-tetrahydro-5H-imidazo[1,5-a][1,4]diazepine], the IC50 under setting [1] lay within 1 to 10 µM.

Regarding `COc1nc(-c2cccnc2C(C)C)c2n1CCN(c1ccc(-c3nc(C(F)(F)F)cn3C)cc1)C2` [Compound 84, 3-(3-methoxy-7-{4-[1-methyl-4-(trifluoromethyl)-1H-imidazol-2-yl]phenyl}-5H,6H,7H,8H-imidazo[1,5-a]pyrazin-1-yl)-2-(propan-2-yl)pyridine], the 50% inhibitory concentration (IC50) (Table 5, read-out: IC50 (μm)) is at most 1 µM.
